Reference: patent US20210403485A1, “PYRAZOLOPYRIMIDINE DERIVATIVE AS SELECTIVE TRK INHIBITOR” (SHANDONG LUYE PHARMACEUTICAL CO., LTD., priority 2018, published 2021)
pIC50: −log10 of the molar value. Like-named read-outs stand apart in the source and are kept apart here.

Legend:
[1] = biological target: T1, Ba/F3 SLC34A2-ROS1-WT (Homo sapiens, UniProt P08922); assay: Inhibitory activity against cell proliferation (CellTiter-Glo, 72 hours); assay type: cell-based; conditions: read-out: Half maximal inhibitory concentration IC50 of cells, Ba/F3 SLC34A2-ROS1-WT
T1 construct: fused on or other part: N-terminal part of SLC34A2 as fusion partner (part of the key); O95436 (Sodium-dependent phosphate transport protein 2B)
Procedure, shortened: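 Log-phase Ba/F3 cells (trypan blue viability above 90%) were treated in triplicate with a 9-point, 3-fold compound series. ATP-dependent luminescence was read after CellTiter-Glo addition, and IC50 values came from nonlinear sigmoidal dose-response fits.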

[2] = Animal body weight and general observations, Ba/F3 ETV6-NTRK3 tumor-bearing nude mice; conditions: 100 mg/kg bid
Method: (§1) The mice in groups were intragastrically administrated on the next day, and the animal body weight and the long and short diameters of the tumor were measured once every other day.

[3] = Pharmacokinetic test of compounds in mice (plasma, LC/MS/MS); assay type: in vivo, male CD-1 mice; conditions: for AUC(0-t): read-out: Area under the curve AUC0-last
Method: Experimental purpose: male CD-1 mice aged 7-9 weeks were selected as test animals, and the drug concentrations of the compounds in plasma at different time points after single intravenous injection (IV) and intragastric administration (PO) of the compounds were measured by an LC/MS/MS method, so that the pharmacokinetic behavior of the compounds disclosed herein in mice was studied, and the pharmacokinetic characteristic of the compounds was evaluated.
Drug preparation: the compounds were all prepared into clear solution by taking 5% DMSO+10% solutol+85% water as vehicle, and were used for administration in IV and PO groups. The dose of each compound administered was: IV, 3 mg/kg; PO, 10 mg/kg.

[4] = Animal body weight and general observations, Ba/F3 ETV6-NTRK3-G623R tumor-bearing nude mice; conditions: 100 mg/kg bid
Method: as §1

[5] = biological target: T2, ALK (Homo sapiens, UniProt Q9UM73); assay: Kinase inhibitory activity (33P-ATP, filtration-binding method, Reaction Biology Corp.); assay type: biochemical; conditions: read-out: Half maximal inhibitory concentration IC50 for kinases, ALK
T2 construct: purchased Reaction Biology Corp
Procedure, shortened: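 Radiometric kinase assay: enzyme-compound mixture preincubated 20 minutes at room temperature, then reaction started with ^33P-ATP and run 120 minutes at room temperature. Filtration-binding readout. Activity expressed relative to DMSO control; IC50 from fitted dose-response curves.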

[6] = biological target: T3, BaF3 ETV6-NTRK3-G623R (Homo sapiens, UniProt Q16288, G623R, cells depend on it); assay: Inhibitory activity against cell proliferation (CellTiter-Glo, 72 hours); assay type: cell-based; conditions: read-out: Half maximal inhibitory concentration IC50 of cells, BaF3 ETV6-NTRK3-G623R
T3 construct: fused on or other part: N-terminal part of ETV6 (TEL) as fusion partner (part of the key); P41212 (Transcription factor ETV6)
Procedure, shortened: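 Ba/F3 stable fusion lines were seeded at 5000 cells/well (viability >90% by trypan blue) and allowed to settle overnight at 37 °C, 5% CO2. Compounds were then added as a 9-point, 3-fold series from a 10-fold working solution with a top concentration of 10 μM, in triplicate. IC50 values came from nonlinear sigmoidal fits of luminescence.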

T3 sequence (Q16288 whole entry G623R, the tested form may be a part): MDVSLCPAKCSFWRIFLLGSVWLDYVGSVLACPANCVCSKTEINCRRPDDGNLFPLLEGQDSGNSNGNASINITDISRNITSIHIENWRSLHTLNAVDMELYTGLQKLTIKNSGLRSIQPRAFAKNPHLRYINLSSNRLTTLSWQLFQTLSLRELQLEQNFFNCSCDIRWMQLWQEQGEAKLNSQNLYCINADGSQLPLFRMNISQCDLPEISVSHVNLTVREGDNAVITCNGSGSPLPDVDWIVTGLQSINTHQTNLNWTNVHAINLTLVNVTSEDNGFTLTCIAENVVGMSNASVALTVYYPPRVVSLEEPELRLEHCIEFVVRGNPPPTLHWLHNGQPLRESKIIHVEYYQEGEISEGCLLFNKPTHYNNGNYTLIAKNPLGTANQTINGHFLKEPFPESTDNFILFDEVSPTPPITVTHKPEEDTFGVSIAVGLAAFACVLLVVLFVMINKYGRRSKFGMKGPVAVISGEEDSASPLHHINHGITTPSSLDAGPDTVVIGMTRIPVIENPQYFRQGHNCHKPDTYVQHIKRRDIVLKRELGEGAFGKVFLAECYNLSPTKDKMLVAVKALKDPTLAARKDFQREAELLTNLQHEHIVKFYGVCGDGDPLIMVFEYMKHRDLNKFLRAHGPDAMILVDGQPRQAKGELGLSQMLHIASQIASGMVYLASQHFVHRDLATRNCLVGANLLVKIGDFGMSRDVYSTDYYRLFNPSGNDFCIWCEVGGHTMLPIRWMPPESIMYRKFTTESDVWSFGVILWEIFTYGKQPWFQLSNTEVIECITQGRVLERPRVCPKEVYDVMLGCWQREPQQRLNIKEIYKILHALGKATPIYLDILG
T1 sequence (P08922 whole entry, stated change not applied, the tested form may be a part): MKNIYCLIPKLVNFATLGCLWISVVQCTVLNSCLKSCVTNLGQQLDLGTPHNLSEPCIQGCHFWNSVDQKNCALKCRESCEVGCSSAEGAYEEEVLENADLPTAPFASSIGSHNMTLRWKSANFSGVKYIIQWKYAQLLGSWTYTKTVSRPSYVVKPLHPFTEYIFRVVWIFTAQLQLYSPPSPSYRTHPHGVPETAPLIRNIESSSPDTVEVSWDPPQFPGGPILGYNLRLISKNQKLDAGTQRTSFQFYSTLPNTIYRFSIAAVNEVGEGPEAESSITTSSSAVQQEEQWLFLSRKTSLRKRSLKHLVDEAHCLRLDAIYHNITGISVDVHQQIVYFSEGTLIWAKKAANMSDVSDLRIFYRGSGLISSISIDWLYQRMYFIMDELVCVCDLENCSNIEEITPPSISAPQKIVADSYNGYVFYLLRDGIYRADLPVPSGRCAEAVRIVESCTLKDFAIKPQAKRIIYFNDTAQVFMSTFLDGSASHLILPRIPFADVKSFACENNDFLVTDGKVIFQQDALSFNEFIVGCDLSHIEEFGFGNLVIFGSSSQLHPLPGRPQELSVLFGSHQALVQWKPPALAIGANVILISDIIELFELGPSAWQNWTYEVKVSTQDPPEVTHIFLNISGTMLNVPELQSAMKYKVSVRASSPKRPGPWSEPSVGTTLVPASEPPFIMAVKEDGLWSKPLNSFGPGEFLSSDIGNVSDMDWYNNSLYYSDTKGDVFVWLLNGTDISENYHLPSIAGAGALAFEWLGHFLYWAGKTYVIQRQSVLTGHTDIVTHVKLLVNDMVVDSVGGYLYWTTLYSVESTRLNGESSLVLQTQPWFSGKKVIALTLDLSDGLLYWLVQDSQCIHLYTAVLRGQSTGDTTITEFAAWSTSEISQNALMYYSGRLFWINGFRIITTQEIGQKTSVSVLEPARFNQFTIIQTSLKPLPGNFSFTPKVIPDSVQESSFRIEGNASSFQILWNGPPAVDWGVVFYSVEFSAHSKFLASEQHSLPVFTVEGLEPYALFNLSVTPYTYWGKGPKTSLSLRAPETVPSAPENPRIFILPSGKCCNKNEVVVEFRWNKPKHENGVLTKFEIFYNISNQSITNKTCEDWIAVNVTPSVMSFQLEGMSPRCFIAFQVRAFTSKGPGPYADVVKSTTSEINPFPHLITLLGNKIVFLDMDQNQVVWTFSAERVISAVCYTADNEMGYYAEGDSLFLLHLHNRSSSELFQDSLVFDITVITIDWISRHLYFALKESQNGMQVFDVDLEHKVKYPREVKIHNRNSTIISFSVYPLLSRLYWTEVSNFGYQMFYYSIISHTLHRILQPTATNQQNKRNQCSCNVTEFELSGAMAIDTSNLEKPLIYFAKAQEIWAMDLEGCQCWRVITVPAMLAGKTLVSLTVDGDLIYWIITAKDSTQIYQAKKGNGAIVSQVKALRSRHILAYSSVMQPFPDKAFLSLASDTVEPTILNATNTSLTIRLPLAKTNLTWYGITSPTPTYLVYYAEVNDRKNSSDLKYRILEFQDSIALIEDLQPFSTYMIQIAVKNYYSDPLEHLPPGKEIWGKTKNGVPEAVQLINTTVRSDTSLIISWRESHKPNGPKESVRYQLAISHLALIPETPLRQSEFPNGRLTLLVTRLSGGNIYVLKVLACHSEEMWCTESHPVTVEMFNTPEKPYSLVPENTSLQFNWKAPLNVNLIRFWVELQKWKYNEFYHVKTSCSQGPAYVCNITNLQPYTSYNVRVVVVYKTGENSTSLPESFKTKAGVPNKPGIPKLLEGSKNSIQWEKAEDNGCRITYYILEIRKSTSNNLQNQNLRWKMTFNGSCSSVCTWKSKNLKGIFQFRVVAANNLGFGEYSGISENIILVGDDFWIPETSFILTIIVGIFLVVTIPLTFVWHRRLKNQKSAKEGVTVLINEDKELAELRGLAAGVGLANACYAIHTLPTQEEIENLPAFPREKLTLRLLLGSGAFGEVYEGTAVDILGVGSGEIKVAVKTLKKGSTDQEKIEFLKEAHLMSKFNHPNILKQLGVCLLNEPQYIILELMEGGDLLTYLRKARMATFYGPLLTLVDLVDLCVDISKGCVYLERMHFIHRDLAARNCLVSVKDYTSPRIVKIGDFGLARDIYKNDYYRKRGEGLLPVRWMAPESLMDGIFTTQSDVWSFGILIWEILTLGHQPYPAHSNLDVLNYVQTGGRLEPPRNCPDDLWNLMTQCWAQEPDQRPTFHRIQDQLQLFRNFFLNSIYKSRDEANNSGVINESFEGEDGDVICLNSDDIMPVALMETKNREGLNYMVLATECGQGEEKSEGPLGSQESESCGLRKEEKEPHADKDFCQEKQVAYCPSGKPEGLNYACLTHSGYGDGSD
T2 sequence (Q9UM73 19-1620): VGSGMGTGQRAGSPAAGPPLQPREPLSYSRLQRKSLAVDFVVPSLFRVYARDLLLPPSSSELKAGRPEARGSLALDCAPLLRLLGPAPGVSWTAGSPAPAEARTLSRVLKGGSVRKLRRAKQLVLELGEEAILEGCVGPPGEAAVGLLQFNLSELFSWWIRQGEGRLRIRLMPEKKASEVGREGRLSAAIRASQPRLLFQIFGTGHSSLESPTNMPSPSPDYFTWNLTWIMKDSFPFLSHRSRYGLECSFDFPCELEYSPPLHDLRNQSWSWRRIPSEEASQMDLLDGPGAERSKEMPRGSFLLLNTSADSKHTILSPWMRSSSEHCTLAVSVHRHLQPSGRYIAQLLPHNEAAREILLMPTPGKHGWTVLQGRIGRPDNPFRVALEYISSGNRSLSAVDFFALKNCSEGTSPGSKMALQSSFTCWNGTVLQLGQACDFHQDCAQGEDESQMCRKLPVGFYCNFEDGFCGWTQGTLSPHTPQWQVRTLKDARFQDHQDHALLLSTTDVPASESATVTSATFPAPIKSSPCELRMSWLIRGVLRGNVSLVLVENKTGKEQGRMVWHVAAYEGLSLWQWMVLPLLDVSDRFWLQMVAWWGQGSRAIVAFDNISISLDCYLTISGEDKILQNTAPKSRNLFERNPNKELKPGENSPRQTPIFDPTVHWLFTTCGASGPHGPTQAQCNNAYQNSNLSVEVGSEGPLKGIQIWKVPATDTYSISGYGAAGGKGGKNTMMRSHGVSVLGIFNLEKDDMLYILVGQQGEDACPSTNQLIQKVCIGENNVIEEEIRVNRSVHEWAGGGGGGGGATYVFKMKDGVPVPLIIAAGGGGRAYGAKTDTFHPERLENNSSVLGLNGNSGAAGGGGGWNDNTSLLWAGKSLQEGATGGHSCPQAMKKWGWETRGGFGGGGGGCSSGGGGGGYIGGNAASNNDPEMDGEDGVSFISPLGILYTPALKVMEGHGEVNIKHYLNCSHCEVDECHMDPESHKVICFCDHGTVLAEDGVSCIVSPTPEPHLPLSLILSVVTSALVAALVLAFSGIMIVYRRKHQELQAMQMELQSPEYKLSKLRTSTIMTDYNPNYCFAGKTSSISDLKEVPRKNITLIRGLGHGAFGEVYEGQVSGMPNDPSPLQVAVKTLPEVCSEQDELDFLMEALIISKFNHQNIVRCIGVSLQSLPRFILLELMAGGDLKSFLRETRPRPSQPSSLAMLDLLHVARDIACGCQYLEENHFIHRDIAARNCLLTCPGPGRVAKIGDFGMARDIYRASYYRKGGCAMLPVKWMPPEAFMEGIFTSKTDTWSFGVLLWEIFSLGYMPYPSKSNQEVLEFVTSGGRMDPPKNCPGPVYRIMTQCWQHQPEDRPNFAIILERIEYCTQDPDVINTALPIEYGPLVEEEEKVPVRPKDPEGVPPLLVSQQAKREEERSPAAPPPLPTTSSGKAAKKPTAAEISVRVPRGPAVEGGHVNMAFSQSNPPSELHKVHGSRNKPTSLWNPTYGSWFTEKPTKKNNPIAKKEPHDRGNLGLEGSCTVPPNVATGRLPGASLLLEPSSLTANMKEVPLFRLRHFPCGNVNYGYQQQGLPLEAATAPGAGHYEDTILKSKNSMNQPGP

C[C@@H]1CCc2ncc(F)cc2[C@H]2CCCN2c2ccn3ncc(c3n2)C(=O)N1 [LOXO-195, reference compound]
GI50 [1]: 36.7 nM | Rate of change in body weight (%) of day 11 to day 0 [2]: 4.9% | Body weight ([2]; Day 0): 22.7 ± 2.7 g | Body weight ([2]; Day 3): 24.4 ± 2.7 g | Body weight ([2]; Day 5): 24.9 ± 2.6 g | Body weight ([2]; Day 7): 25.1 ± 2.8 g | Body weight ([2]; Day 9): 25.4 ± 3.0 g | Body weight ([2]; Day 11): 25.2 ± 3.0 g | Apparent clearance Cl ([3]; IV, 3 mg/kg): 11.8 mL/min/kg | Bioavailability F % ([3]; PO, 10 mg/kg): 74% | Vd ([3]; male, CD-1, mouse, plasma, IV, 3 mg/kg, read-out: Apparent volume of distribution Vd): 0.5 L/kg | AUC(0-t) ([3]; male, CD-1, mouse, plasma, IV, 3 mg/kg): 11.1 µM·h | half-life ([3]; male, CD-1, mouse, plasma, IV, 3 mg/kg, read-out: Half-life T1/2 (converted)): 71.4 min | AUC(0-t) ([3]; male, CD-1, mouse, plasma, PO, 10 mg/kg): 27.3 µM·h | Cmax ([3]; male, CD-1, mouse, plasma, PO, 10 mg/kg, read-out: Peak concentration Cmax): 12.7 µM | Tmax ([3]; male, CD-1, mouse, plasma, PO, 10 mg/kg, read-out: Time to peak Tmax): 22.8 min | Rate of change in body weight (%) of day 11 to day 0 [4]: 2.1% | General observations ([4]; the 1# animal, possibly associated with the administration operation): developed thorax congestion at D8 and died at D10 | Body weight ([4]; Day 0): 23.5 ± 1.2 g | Body weight ([4]; Day 3): 24.4 ± 1.1 g | Body weight ([4]; Day 5): 24.4 ± 0.9 g | Body weight ([4]; Day 7): 24.6 ± 0.9 g | Body weight ([4]; Day 9): 24.4 ± 1.2 g | Body weight ([4]; Day 11): 24.0 ± 1.7 g | pIC50 [5]: 6.56 | GI50 [6]: 2.7 nM
